Assay results: ChEMBL document CHEMBL4004821, “Design and synthesis of novel tetrandrine derivatives as potential anti-tumor agents against human hepatocellular carcinoma” (Eur J Med Chem, 2017)

tested on: PLC-PRF-5; experiment: Cytotoxicity against human PLC/PRF/5 cells assessed as growth inhibition after 24 hrs by MTT assay; format: functional, cell-based; details: PLC-PRF-5, 24 h

Point of comparison: `COc1ccc(C(=O)Nc2cc(OC)c3cc2C[C@H]2c4c(cc(OC)c(OC)c4Oc4cc5c(cc4OC)CCN(C)[C@H]5Cc4ccc(cc4)O3)CCN2C)cc1`, IC50 5.32 µM. Against it:
- COc1cc(NC(C)=O)c2cc1Oc1ccc(cc1)C[C@H]1c3cc(c(OC)cc3CCN1C)Oc1c(OC)c(OC)cc3c1[C@H](C2)N(C)CC3 — 2.3-fold higher, 12.3 µM
- COc1ccc2cc1Oc1ccc(cc1)C[C@H]1c3cc(c(OC)cc3CCN1C)Oc1c(OC)c(OC)cc3c1[C@H](C2)N(C)CC3 [FANCHININ] — 3.5-fold higher, 18.5 µM
- COc1cc(NC(=O)CO)c2cc1Oc1ccc(cc1)C[C@H]1c3cc(c(OC)cc3CCN1C)Oc1c(OC)c(OC)cc3c1[C@H](C2)N(C)CC3 — 1.9-fold higher, 10.2 µM
- COc1cc(NC(=O)/C=C/c2ccccc2)c2cc1Oc1ccc(cc1)C[C@H]1c3cc(c(OC)cc3CCN1C)Oc1c(OC)c(OC)cc3c1[C@H](C2)N(C)CC3 — 1.8-fold higher, 9.81 µM
- COc1cc(NC(=O)COC(C)=O)c2cc1Oc1ccc(cc1)C[C@H]1c3cc(c(OC)cc3CCN1C)Oc1c(OC)c(OC)cc3c1[C@H](C2)N(C)CC3 — 1.9-fold higher, 10.2 µM
- COc1cc(NC(=O)C(C)(C)C)c2cc1Oc1ccc(cc1)C[C@H]1c3cc(c(OC)cc3CCN1C)Oc1c(OC)c(OC)cc3c1[C@H](C2)N(C)CC3 — within 1.5-fold, 5.37 µM
- COc1cc(NC(=O)c2ccc(Cl)cc2)c2cc1Oc1ccc(cc1)C[C@H]1c3cc(c(OC)cc3CCN1C)Oc1c(OC)c(OC)cc3c1[C@H](C2)N(C)CC3 — 2.2-fold higher, 11.9 µM
- C=CC(=O)Nc1cc(OC)c2cc1C[C@H]1c3c(cc(OC)c(OC)c3Oc3cc4c(cc3OC)CCN(C)[C@H]4Cc3ccc(cc3)O2)CCN1C — 2-fold higher, 10.7 µM
- COc1cc(NC(=O)C(F)(F)F)c2cc1Oc1ccc(cc1)C[C@H]1c3cc(c(OC)cc3CCN1C)Oc1c(OC)c(OC)cc3c1[C@H](C2)N(C)CC3 — 2.4-fold lower, 2.24 µM
- COc1cc(NC(=O)c2ccccc2Cl)c2cc1Oc1ccc(cc1)C[C@H]1c3cc(c(OC)cc3CCN1C)Oc1c(OC)c(OC)cc3c1[C@H](C2)N(C)CC3 — 2.3-fold higher, 12.1 µM
- COc1cc(NC(=O)c2ccoc2)c2cc1Oc1ccc(cc1)C[C@H]1c3cc(c(OC)cc3CCN1C)Oc1c(OC)c(OC)cc3c1[C@H](C2)N(C)CC3 — 2.8-fold lower, 1.89 µM
- COc1cc(NC(=O)c2ccc(Cl)cc2Cl)c2cc1Oc1ccc(cc1)C[C@H]1c3cc(c(OC)cc3CCN1C)Oc1c(OC)c(OC)cc3c1[C@H](C2)N(C)CC3 — 1.5-fold higher, 8.24 µM
- COC(=O)C(=O)Nc1cc(OC)c2cc1C[C@H]1c3c(cc(OC)c(OC)c3Oc3cc4c(cc3OC)CCN(C)[C@H]4Cc3ccc(cc3)O2)CCN1C — within 1.5-fold, 3.72 µM
- COc1cc(NC(=O)c2ccccc2)c2cc1Oc1ccc(cc1)C[C@H]1c3cc(c(OC)cc3CCN1C)Oc1c(OC)c(OC)cc3c1[C@H](C2)N(C)CC3 — 1.7-fold higher, 9.16 µM
- COc1cc(NC(=O)CCBr)c2cc1Oc1ccc(cc1)C[C@H]1c3cc(c(OC)cc3CCN1C)Oc1c(OC)c(OC)cc3c1[C@H](C2)N(C)CC3 — within 1.5-fold, 6.34 µM
- C=CCCCCCCCCC(=O)Nc1cc(OC)c2cc1C[C@H]1c3c(cc(OC)c(OC)c3Oc3cc4c(cc3OC)CCN(C)[C@H]4Cc3ccc(cc3)O2)CCN1C — 2.1-fold higher, 11.3 µM
- COc1cc(NC(=O)c2cccc(Cl)c2)c2cc1Oc1ccc(cc1)C[C@H]1c3cc(c(OC)cc3CCN1C)Oc1c(OC)c(OC)cc3c1[C@H](C2)N(C)CC3 — within 1.5-fold, 7.63 µM

tested on: not listed separately; experiment: Cytotoxicity against human MHCC97L cells assessed as growth inhibition after 24 hrs by MTT assay; format: functional, cell-based; details: not given

Point of comparison: `COc1cc(NC(=O)COC(C)=O)c2cc1Oc1ccc(cc1)C[C@H]1c3cc(c(OC)cc3CCN1C)Oc1c(OC)c(OC)cc3c1[C@H](C2)N(C)CC3`, IC50 8.41 µM. Against it:
- COc1cc(NC(C)=O)c2cc1Oc1ccc(cc1)C[C@H]1c3cc(c(OC)cc3CCN1C)Oc1c(OC)c(OC)cc3c1[C@H](C2)N(C)CC3 — within 1.5-fold, 12.2 µM
- COc1ccc2cc1Oc1ccc(cc1)C[C@H]1c3cc(c(OC)cc3CCN1C)Oc1c(OC)c(OC)cc3c1[C@H](C2)N(C)CC3 [FANCHININ] — 1.8-fold higher, 15 µM
- COc1cc(NC(=O)CO)c2cc1Oc1ccc(cc1)C[C@H]1c3cc(c(OC)cc3CCN1C)Oc1c(OC)c(OC)cc3c1[C@H](C2)N(C)CC3 — within 1.5-fold, 9.09 µM
- COc1cc(NC(=O)/C=C/c2ccccc2)c2cc1Oc1ccc(cc1)C[C@H]1c3cc(c(OC)cc3CCN1C)Oc1c(OC)c(OC)cc3c1[C@H](C2)N(C)CC3 — within 1.5-fold, 7.7 µM
- COc1ccc(C(=O)Nc2cc(OC)c3cc2C[C@H]2c4c(cc(OC)c(OC)c4Oc4cc5c(cc4OC)CCN(C)[C@H]5Cc4ccc(cc4)O3)CCN2C)cc1 — within 1.5-fold, 12 µM
- COc1cc(NC(=O)C(C)(C)C)c2cc1Oc1ccc(cc1)C[C@H]1c3cc(c(OC)cc3CCN1C)Oc1c(OC)c(OC)cc3c1[C@H](C2)N(C)CC3 — within 1.5-fold, 6.4 µM
- COc1cc(NC(=O)c2ccc(Cl)cc2)c2cc1Oc1ccc(cc1)C[C@H]1c3cc(c(OC)cc3CCN1C)Oc1c(OC)c(OC)cc3c1[C@H](C2)N(C)CC3 — within 1.5-fold, 10.3 µM
- C=CC(=O)Nc1cc(OC)c2cc1C[C@H]1c3c(cc(OC)c(OC)c3Oc3cc4c(cc3OC)CCN(C)[C@H]4Cc3ccc(cc3)O2)CCN1C — within 1.5-fold, 10.4 µM
- COc1cc(NC(=O)C(F)(F)F)c2cc1Oc1ccc(cc1)C[C@H]1c3cc(c(OC)cc3CCN1C)Oc1c(OC)c(OC)cc3c1[C@H](C2)N(C)CC3 — 3.5-fold lower, 2.41 µM
- COc1cc(NC(=O)c2ccccc2Cl)c2cc1Oc1ccc(cc1)C[C@H]1c3cc(c(OC)cc3CCN1C)Oc1c(OC)c(OC)cc3c1[C@H](C2)N(C)CC3 — 3-fold lower, 2.81 µM
- COc1cc(NC(=O)c2ccoc2)c2cc1Oc1ccc(cc1)C[C@H]1c3cc(c(OC)cc3CCN1C)Oc1c(OC)c(OC)cc3c1[C@H](C2)N(C)CC3 — 2.6-fold lower, 3.22 µM
- COc1cc(NC(=O)c2ccc(Cl)cc2Cl)c2cc1Oc1ccc(cc1)C[C@H]1c3cc(c(OC)cc3CCN1C)Oc1c(OC)c(OC)cc3c1[C@H](C2)N(C)CC3 — 4.9-fold lower, 1.7 µM
- COC(=O)C(=O)Nc1cc(OC)c2cc1C[C@H]1c3c(cc(OC)c(OC)c3Oc3cc4c(cc3OC)CCN(C)[C@H]4Cc3ccc(cc3)O2)CCN1C — 3.4-fold lower, 2.46 µM
- COc1cc(NC(=O)c2ccccc2)c2cc1Oc1ccc(cc1)C[C@H]1c3cc(c(OC)cc3CCN1C)Oc1c(OC)c(OC)cc3c1[C@H](C2)N(C)CC3 — within 1.5-fold, 7.8 µM
- COc1cc(NC(=O)CCBr)c2cc1Oc1ccc(cc1)C[C@H]1c3cc(c(OC)cc3CCN1C)Oc1c(OC)c(OC)cc3c1[C@H](C2)N(C)CC3 — within 1.5-fold, 7.86 µM
- C=CCCCCCCCCC(=O)Nc1cc(OC)c2cc1C[C@H]1c3c(cc(OC)c(OC)c3Oc3cc4c(cc3OC)CCN(C)[C@H]4Cc3ccc(cc3)O2)CCN1C — within 1.5-fold, 10.8 µM
- COc1cc(NC(=O)c2cccc(Cl)c2)c2cc1Oc1ccc(cc1)C[C@H]1c3cc(c(OC)cc3CCN1C)Oc1c(OC)c(OC)cc3c1[C@H](C2)N(C)CC3 — 2.3-fold lower, 3.67 µM
